Experimental data reported in EP4458353A1, “ANTICARIOGENIC SYNERGETIC COMPOSITION FOR ORAL CARE” (SkyLab AG, priority 2023, dated 2024).

How the values were obtained:
[1] = target: T1, lysozyme (Gallus gallus, UniProt P00698); test: Lysozyme and naringenin compatibility: lysozyme activity by fall of optical density of Micrococcus lysodeicticus cells; type: biochemical; conditions: added to the buffered medium with lysozyme; 30, 60, 120 minutes at 37 degrees
T1 construct: Lysozyme used in all tests was 99% anhydrous lysozyme hydrochloride isolated from the egg yolks; from tissue; host or cells: eggs ('egg yolks' as printed)
T1 sequence (P00698 19-147): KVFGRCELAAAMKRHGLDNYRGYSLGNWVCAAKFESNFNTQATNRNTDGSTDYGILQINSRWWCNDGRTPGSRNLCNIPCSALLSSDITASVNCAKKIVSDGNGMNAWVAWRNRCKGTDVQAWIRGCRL
Protocol: Example ? 8. Assessment of lysozyme and naringenin compatibility Potential impact of naringenin on lysozyme activity was assessed through the measurement of lysozyme activity by the method described in the patent RU2294373C2. To determine the lysozyme activity the optical density values obtained for the control wells are subtracted from the optical density values obtained for the wells, which were incubated in the presence of lysozyme. The bacterial cells Micrococcus lysodeicticus in amount corresponding to the optical density 0.6 are mixed with the equal volume of buffer containing lysozyme, naringenin, guava leaf CO2 extract, while no lysozyme is added into the control well. Then the plate is incubated for 30, 60, 120 minutes at 37 degrees, and the optical density is measured. The fall of optical density indicates the lysozyme activity. Then the final density value is subtracted from the initial density value followed by normalization for incubation time and the enzyme concentration in accordance with the procedure described in RU2294373C2.

[2] = tested on: Streptococcus sobrinus; test: Minimum biofilm inhibitory concentration (MBIC), crystal violet staining; type: cell-based; conditions: S. sobrinus
Protocol: Group of examples No 4 - 6. Anti-biofilm activity of the substance or of the composition of substances was assessed from minimum biofilm inhibitory concentration (MBIC) and from the rate of biofilm formation on hydroxyapatite disks.
Reference strains Streptococcus mutans and S. Sobrinus were used as the bacterial models.
Example No 4. MBIC as the measure of the substance effect on the bacterial biofilm is equal to minimum concentration inhibiting the biofilm formation or disruption of already formed biofilm during 24 hour incubation.
MBIC of individual components of the composition, specifically, naringenin, guava leaf CO2 extract, and enzymes lysozyme and labiase can be determined according to the procedure: • 1) All stages of nutritive medium preparation, preparation and incubation of bacterial cultures in 96-well microtiter plates with the test composition of the substances added into nutritive medium were as described in Example 1. • 2) All controls for the culture growth, for purity of nutritive medium and for solvents were as described in Example 1. • 3) Incubate the plates at 37 °C for 24 ± 4 h without the use the orbital shaker. • 4) Stain the bacterial biofilm accumulated on bottom of the plate wells with crystal violet. For this purpose remove the planktonic culture from the plate wells after 24 h incubation and wash with two portions of phosphate-buffered saline (PBS, pH 7.4) to remove remaining planktonic culture. Then dry the plate for 12-15 hours. Add 100 µL of 0.5% crystal violet solution (Sigma-Aldrich, USA), dissolved in 96% ethanol followed by incubation for 20 minutes. After removal of crystal violet solution from the wells wash the plate with 3-4 portions of PBS. After drying add […] of 96% ethanol into the wells to elute the crystal violet, which has bound to the biofilm. • 5) Shake the plate on the orbital shaker for 2 minutes at 37 °C and then measure optical density (OD) at the wavelength of 550nm using multimodal microplate reader against the blank (the well, where the sterile medium LB was incubated and then exposed to all staining manipulations). Since the serial dilution method with 2-fold dilution steps is used for MBIC determination, the difference between the adjacent dilution is considered as non-significant, and MBIC is defined as the median value calculated for 5 independent biological replicates of the experiment. • 6) The following concentrations were tested: naringenin and guava leaf extract at concentrations 1.6, 0.8, 0.4, 0.2, 0.1, 0.05 mg/mL; lysozyme and labiase at concentrations 4.0, 2.0, 1.0, 0.5, 0.25, 0.125 mg/mL. Well-known antibacterial components were used as controls: chlorohexidine bigluconate at concentrations 64, 32, 16, 8, 4 µg/mL; zinc gluconate at concetrations 5.0, 2.5, 1.25, 0.6, 0.3, 0.15 mg/mL.

[3] = tested on: S. mutans; conditions: naringenin at concentration 200 µg/mL; cited from earlier work
[4] = tested on: S. mutans biofilms; test: Biofilm formation on hydroxyapatite disks (CFU in resuspended biofilm); type: cell-based; conditions: for %N Control: percentage of S. mutans CFU on the disk in control experiment; for N S.mutans (CFU/mL): resuspended biofilm from hydroxyapatite disks, 64h incubation
Protocol: Example ? 6. Anti-biofilm activity of individual substances selected from naringenin, guava leaf extract, and lysozyme, or the composition thereof, is assessed from the rate of biofilm formation on hydroxyapatite disks, with the use of the following procedure: • 1) Prepare the heart-brain broth (DM106D, Mast Group Ltd., U.K.) and Columbian agar supplemented with defibrinated blood (OOO "GEM" Cat. No BP-023) in accordance with the manufacturer's instruction • 2) All stages of preparation of the bacterial culture suspensions were similar to those described in Example 1. • 3) Prepare saliva, which is required for biofilm formation and provides the bacteria adhesion to the surface of hydroxyapatite disks. […] Centrifuge the collected saliva at 12 000 rpm for 30 minutes at 4°C. Harvest the supernatant into the clean tube and subject to pasteurization at 65°C for 30 minutes followed by one more centrifugation.
The efficacy of saliva pasteurization is assessed from direct inoculation on Columbian blood agar. The plates are incubated under aerobic and anaerobic conditions at 37°C for 72 hours. The saliva is considered sterile if no growth of bacterial and fungal colonies is observed within 72 hours of observation.
Store the saliva at temperature -80 °C before the use. • 4) To form the salivary film on the surface of hydroxyapatite disk put three sterile disks (sterilization by autoclaving at 132 °C for 20 min) in each of 9 Petri dishes 40 mm in diameter abd incubate in 3 mL of the pasteurized saliva at room temperature for 4 hours with gentle shaking on orbital shaker. Then remove the saliva and add 3 mL of nutritive medium containing 1.2 mL of heart-brain broth; 1.2 mL of pasteurized saliva; 0.6 mL of S. mutans suspension at concentration of 10^6 CFU/mL into the Petri dish. The formation of S. mutans biofilm on the disk surface is achieved at 37°C under the atmosphere of 5 % CO2 in the environment, with gentle shaking on orbital shaker for 16 hours. • 5) After 16-hour incubation remove old nutritive medium from the dishes and add a fresh portion of heart-brain broth containing S. mutans suspension and the pasteurized saliva. Add the active substances selected from naringenin, guava leaf extract and lysozyme or combination thereof to final concentration 0.1 or 1.0 mg/mL. Repeat the procedure of medium replacement twice daily within […] and 8 h after the first change. • 6) To remove the biofilm formed in the disk surface take the disks away from Petri dishes after the incubation for 2 days and rinse in the large volume of PBS (pH 7.2). Then place the disks into sterile Petri dishes with 3 mL of PBS (pH 7.2) and shake vigorously on the orbital shaker for 30 minutes. […]

Structure (SMILES): O=C1C[C@@H](c2ccc(O)cc2)Oc2cc(O)cc(O)c21 [Naringenin, naringenin]
- effect on lysozyme activity [1]: neither affect lysozyme nor decrease the lysozyme activity
- MBIC in indicvdual replicates Replicate 1 ([2]; 24 h incubation): >1.6 mg/mL
- MBIC in indicvdual replicates Replicate 2 ([2]; 24 h incubation): >1.6 mg/mL
- MBIC in indicvdual replicates Replicate 3 ([2]; 24 h incubation): >1.6 mg/mL
- MBIC in indicvdual replicates Replicate 4 ([2]; 24 h incubation): >1.6 mg/mL
- MBIC in indicvdual replicates Replicate 5 ([2]; 24 h incubation): >1.6 mg/mL
- MBIC Median value ([2]; median of 5 replicates): >1.6 mg/mL
- biofilm formation [3]: virtually completely inhibited
- %N Control ([4]; Csubstance 0.1 mg/mL): 66.7%
- N S.mutans (CFU/mL) ([4]; Csubstance 0.1 mg/mL): 2.8·10^6 CFU/mL
- %N Control ([4]; Csubstance 1.0 mg/mL): 50.0%
- N S.mutans (CFU/mL) ([4]; Csubstance 1.0 mg/mL): 2.1·10^6 CFU/mL
